According to US8318753B2, “Farnesyl transferase inhibiting 1,2-annelated quinoline enantiomer” (Janssen Pharmaceutica NV, priority 2000, dated 2012):
pIC50: −log10 of the molar value.

Experiments:
[1] = biological target: farnesyl protein transferase (FPTase) (Homo sapiens, UniProt P49354+P49356); experiment: In vitro assay for inhibition of farnesyl protein transferase; assay type: biochemical; details: essentially as described in WO 98/40383, pages 33-34, read-out: IC50 FPTase inhibitory activity
Description: In Vitro Assay for Inhibition of Farnesyl Protein Transferase
An in vitro assay for inhibition of farnesyl protein transferase was performed essentially as described in WO 98/40383, pages 33-34.

melting point	pIC50 [1]	Compound
178 to 180 °C	9.15	Cn1cncc1C(N)(c1ccc(Cl)cc1)c1ccc2c(c1)c(-c1cccc(Cl)c1)nc1nnnn12 (single isomer, unassigned; (-)) [(−) enantiomer, (−)-5-(3-chlorophenyl)-α-(4-chlorophenyl)-α-(1-methyl-1H-imidazol-5-yl)tetrazolo[1,5-a]quinazoline-7-methanamine]
–	8.96	Cn1cncc1C(N)(c1ccc(Cl)cc1)c1ccc2c(c1)c(-c1cccc(Cl)c1)nc1nnnn12 (racemic) [parent enantiomeric mixture, (±)-5-(3-chlorophenyl)-α-(4-chlorophenyl)-α-(1-methyl-1H-imidazol-5-yl)tetrazolo[1,5-a]quinazoline-7-methanamine, reference compound]
